Patent US20090258860A1, “XANTHINE DERIVATIVES FOR THE TREATMENT OF VASCULAR DEPRESSION” (Duke University, priority 2006, published 2009)

How the values were obtained:
[1] = system: patients with multi-infarct dementia; conditions: cited from earlier work
[2] = system: elderly patients with a diagnosis of vascular depression currently being treated with an SSRI and/or SNRI; experiment: Case studies of pentoxifylline and propentofylline add-on treatment of vascular depression (HDRS); assay type: in vivo, human; conditions: add-on to existing SSRI and/or SNRI
Experimental: These case studies investigate the effects of pentoxifylline and propentofylline in one or more elderly patients (>60 years of age) with a diagnosis of vascular depression and who are currently being treated with an SSRI and/or SNRI.
Patients are evaluated at baseline and at regular intervals for a period of months. They are evaluated according to the Hamilton Depressive Rating Scale (HDRS; Hamilton, J. Neurol. Neurosurg. Psychiatry 23:56-62 (1960)).
In one group, pentoxifylline is administered orally in a dose of 400 mg three times a day to augment their SSRI and/or SNRI treatment regimen. In another group, propentofylline is administered orally in a dose of 200 mg three times a day to augment their SSRI and/or SNRI treatment regimen.

[3] = system: elderly patients with a diagnosis of vascular depression; experiment: Case studies of pentoxifylline and propentofylline treatment of vascular depression (HDRS); assay type: in vivo, human; conditions: oral monotherapy
Experimental: Patients are evaluated at baseline and at regular intervals for a period of months. They are evaluated according to the Hamilton Depressive Rating Scale (HDRS; Hamilton, J. Neurol. Neurosurg. Psychiatry 23:56-62 (1960)). Patients are excluded if their HDRS is ≦15.
In one group, pentoxifylline is administered orally in a dose of 400 mg three times a day. In another group, propentofylline is administered orally in a dose of 200 mg three times a day.

[4] = in vivo; cited from earlier work

| Compound | intellectual and cognitive function [1] | tolerability [2] | tolerability [3] | cerebral blood flow [4] |
| --- | --- | --- | --- | --- |
| CC(=O)CCCCn1c(=O)c2c(ncn2C)n(C)c1=O [pentoxifylline, 1-(5-oxohexyl)-3,7-dimethylxanthine] | improve | well tolerated | well tolerated |  |
| CCCn1cnc2c1c(=O)n(CCCCC(C)=O)c(=O)n2C [propentofylline, 1-(5-oxohexyl)-3-methyl-7-n-propylxanthine] |  | well tolerated | well tolerated |  |
| CC(O)CCCCn1c(=O)c2c(ncn2C)n(C)c1=O (stereo not drawn) [1(5-hydroxyhexyl)-3,7-dimethylxanthine] |  |  |  | increasing cerebral blood flow |
